Bounds are passed on as bounds.

human GluN1/GluN2B NMDA receptors, sequence (Q13224 27-1484, other chains not shown): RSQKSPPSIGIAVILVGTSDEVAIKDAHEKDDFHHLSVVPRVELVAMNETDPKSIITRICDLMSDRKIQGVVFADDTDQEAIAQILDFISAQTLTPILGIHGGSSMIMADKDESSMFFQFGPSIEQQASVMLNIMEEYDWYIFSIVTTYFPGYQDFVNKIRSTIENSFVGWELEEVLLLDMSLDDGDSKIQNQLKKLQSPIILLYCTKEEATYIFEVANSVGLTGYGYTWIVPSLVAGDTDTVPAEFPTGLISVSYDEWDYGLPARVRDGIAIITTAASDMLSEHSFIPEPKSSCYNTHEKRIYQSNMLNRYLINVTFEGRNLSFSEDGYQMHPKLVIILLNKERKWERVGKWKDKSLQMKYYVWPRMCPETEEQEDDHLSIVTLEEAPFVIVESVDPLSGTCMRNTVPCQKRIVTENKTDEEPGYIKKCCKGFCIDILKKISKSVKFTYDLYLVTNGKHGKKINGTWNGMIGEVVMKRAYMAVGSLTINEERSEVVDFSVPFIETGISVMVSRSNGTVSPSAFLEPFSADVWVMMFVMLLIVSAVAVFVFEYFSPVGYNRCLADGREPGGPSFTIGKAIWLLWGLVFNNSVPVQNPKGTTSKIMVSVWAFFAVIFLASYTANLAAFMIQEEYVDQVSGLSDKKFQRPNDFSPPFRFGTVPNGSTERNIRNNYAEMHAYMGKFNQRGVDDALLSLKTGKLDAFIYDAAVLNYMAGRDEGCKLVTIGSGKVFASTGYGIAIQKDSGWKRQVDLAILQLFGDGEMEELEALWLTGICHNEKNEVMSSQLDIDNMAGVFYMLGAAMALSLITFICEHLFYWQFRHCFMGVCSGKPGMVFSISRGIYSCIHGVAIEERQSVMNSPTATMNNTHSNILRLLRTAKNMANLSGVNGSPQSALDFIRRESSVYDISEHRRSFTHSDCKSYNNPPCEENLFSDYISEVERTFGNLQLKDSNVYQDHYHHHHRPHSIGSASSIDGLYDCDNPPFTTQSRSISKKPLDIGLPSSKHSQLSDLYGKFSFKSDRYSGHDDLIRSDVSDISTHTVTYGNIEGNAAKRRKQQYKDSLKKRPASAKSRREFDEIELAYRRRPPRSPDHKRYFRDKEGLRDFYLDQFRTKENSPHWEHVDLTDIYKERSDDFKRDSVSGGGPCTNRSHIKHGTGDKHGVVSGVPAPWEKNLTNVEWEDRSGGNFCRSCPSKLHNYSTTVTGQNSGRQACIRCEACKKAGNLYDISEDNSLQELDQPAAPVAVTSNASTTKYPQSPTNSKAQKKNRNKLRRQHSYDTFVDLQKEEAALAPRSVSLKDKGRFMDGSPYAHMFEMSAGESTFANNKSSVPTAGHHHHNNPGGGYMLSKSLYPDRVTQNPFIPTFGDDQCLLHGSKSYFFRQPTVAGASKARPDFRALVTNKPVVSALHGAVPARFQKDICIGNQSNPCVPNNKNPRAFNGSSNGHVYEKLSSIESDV

This assay concerns the target human GluN1/GluN2B NMDA receptors (Homo sapiens, UniProt Q05586+Q13224). Put plainly: Cell-based calcium flux (FLIPR) assay on cloned human GluN1/GluN2B ion channels expressed in mammalian cells. The settings on record: standard assay; glutamate ~EC40, 10 μM glycine; stable Tet-On cell line. The protocol: 5.3. Biological Assays: Effect of Compounds of Formula (I) on Cloned Human GluN1/GluN2B Ion Channels Expressed in Mammalian Cells
NMDA receptors are ion channels that are highly permeable to Ca^2+ ions, rendering it possible to monitor NMDA receptor function using cell-based calcium flux assay. In this assay, co-agonists glutamate and glycine are added to cells heterologously expressing human GluN1/GluN2B NMDA receptors to initiate cellular Ca^2+ influx. The time course of the changes in intracellular calcium is measured using a fluorescent dye and a FLIPR (Fluorometric Imaging Plate Reader) device.
Twenty four hours before measurements, the expression of the NMDA receptors in the stable cell line is induced with Tet-On inducible system in the presence of a non-selective NMDA receptor blocker. On the day of the experiment, cell culture media is carefully washed and the cells are loaded with Calcium 5 Dye Kit (Molecular Devices) in dye loading buffer containing 137 mM NaCl, 4 mM KCl, 2 mM CaCl2, 0.5 mM MgCl2 (standard assay) or 1.5 mM MgCl2 (HTS assay), 10 mM HEPES and 5 mM D-glucose; pH 7.4. After 1 h incubation at the room temperature, the dye is washed away with the assay buffer (137 mM NaCl (standard assay) or 150 mM (HTS assay), 4 mM KCl (standard assay) or 3 mM (HTS assay), 2 mM CaCl2, 0.01 mM EDTA, 10 mM HEPES and 5 mM D-glucose; pH 7.4) In the FLIPR TETRA reader, various concentrations of the test compounds are added to the cells for 5 min while fluorescence is monitored to detect potential agonist activity. Next, co-agonists, glutamate and glycine are added for another 5 minutes. The concentration of glutamate corresponding to ˜EC40 (standard assay) or EC40 (HTS assay) is used to maximize the assay's signal window and ability to detect NMDA receptor antagonists and negative allosteric modulators. A saturating concentration (10 μM) of glycine is also present in the assay. A non-selective NMDA receptor antagonist, (+)MK-801 is used as a positive control for antagonist activity. The fluorescent signal in the presence of test compounds is quantified and normalized to the signal defined by the appropriate control wells.
(A change in cytosolic calcium serves as a functional read-out for many receptors and channels.)
Take `Cc1ncc(-c2ccc(F)c(Cl)c2)cc1CN1CCCOC1=O` [Example 65, 3-[[5-(3-Chloro-4-fluoro-phenyl)-2-methyl-3-pyridyl]methyl]-1,3-oxazinan-2-one]: the concentration for half-maximal inhibition (IC50) was 30 nM.

`Cc1cc(-c2cnc(C)c(CN3CCCOC3=O)c2)ccc1F` [Example 66, 3-[[5-(4-Fluoro-3-methyl-phenyl)-2-methyl-3-pyridyl]methyl]-1,3-oxazinan-2-one]: the IC50 came out at 23 nM.

In the case of `Cc1ncc(-c2ccc(F)c(F)c2)cc1CN1CCCOC1=O` [Example 67, 3-[[5-(3,4-Difluorophenyl)-2-methyl-3-pyridyl]methyl]-1,3-oxazinan-2-one], the half-maximal inhibitory concentration (IC50) is 344 nM.

On to `Cc1ncc(-c2ccc(F)cc2)cc1CN1CCCOC1=O` [Example 68, 3-[[5-(4-Fluorophenyl)-2-methyl-3-pyridyl]methyl]-1,3-oxazinan-2-one], for which the IC50 was greater than 3000 nM.

As to `Cc1ncc(-c2cccc(F)c2)cc1CN1CCCOC1=O` [Example 69, 3-[[5-(3-Fluorophenyl)-2-methyl-3-pyridyl]methyl]-1,3-oxazinan-2-one], the concentration for half-maximal inhibition (IC50) worked out at 3020 nM.

As to `Cc1cc(-c2cnc(C)c(CN3CCCOC3=O)c2)cc(F)c1F` [Example 70, 3-[[5-(3,4-Difluoro-5-methyl-phenyl)-2-methyl-3-pyridyl]methyl]-1,3-oxazinan-2-one], the IC50 is 13 nM.

Turning to `Cc1ncc(-c2ccc(F)c(C)c2F)cc1CN1CCCOC1=O` [Example 71, 3-[[5-(2,4-Difluoro-3-methyl-phenyl)-2-methyl-3-pyridyl]methyl]-1,3-oxazinan-2-one], the IC50 stood at 22 nM.

Regarding `Cc1ncc(-c2ccc(F)cc2F)cc1CN1CCCOC1=O` [Example 72, 3-[[5-(2,4-Difluorophenyl)-2-methyl-3-pyridyl]methyl]-1,3-oxazinan-2-one], the 50% inhibitory concentration (IC50) came to 2240 nM.

For the molecule `Cc1ncc(-c2ccc(Cl)c(Cl)c2)cc1CN1CCCOC1=O` [Example 73, 3-[[5-(3,4-Dichlorophenyl)-2-methyl-3-pyridyl]methyl]-1,3-oxazinan-2-one], the IC50 turned out to be 19 nM.

As for `Cc1ncc(-c2cccc(C(F)(F)F)c2)cc1CN1CCCOC1=O` [Example 74, 3-[[2-Methyl-5-[3-(Trifluoromethyl)phenyl]-3-pyridyl]methyl]-1,3-oxazinan-2-one], the IC50 was 50 nM.

For the molecule `Cc1ncc(-c2ccc(F)c(C(F)(F)F)c2)cc1CN1CCCOC1=O` [Example 75, 3-[[5-[4-Fluoro-3-(trifluoromethyl)phenyl]-2-methyl-3-pyridyl]methyl]-1,3-oxazinan-2-one], the concentration for half-maximal inhibition (IC50) stood at 39 nM.

With `Cc1cc(-c2cnc(C)c(CN3CCOC3=O)c2)ccc1F` [Example 76, 3-[[5-(4-Fluoro-3-methyl-phenyl)-2-methyl-3-pyridyl]methyl]oxazolidin-2-one], the IC50 was 19 nM.

Consider `Cc1ncc(-c2ccc(F)c(C)c2F)cc1CN1CCOC1=O` [Example 77, 3-[[5-(2,4-Difluoro-3-methyl-phenyl)-2-methyl-3-pyridyl]methyl]oxazolidin-2-one], for which the half-maximal inhibitory concentration (IC50) is 13 nM.

Consider `Cc1ncc(-c2ccc(F)c(C(C)(F)F)c2)cc1CN1CCOC1=O` [Example 78, 3-[[5-[3-(1,1-Difluoroethyl)-4-fluoro-phenyl]-2-methyl-3-pyridyl]methyl]oxazolidin-2-one], for which the IC50 was found to be 32 nM.

Take `Cc1ncc(-c2ccc(F)c(OC(F)F)c2)cc1CN1CCOC1=O` [Example 79, 3-[[5-[3-(Difluoromethoxy)-4-fluoro-phenyl]-2-methyl-3-pyridyl]methyl] oxazolidin-2-one]: the 50% inhibitory concentration (IC50) amounted to 10 nM.

As to `Cc1ncc(-c2ccc(F)c(OC(F)F)c2)cc1CN1CC2(CC2)OC1=O` [Example 84, 5-[[5-[3-(Difluoromethoxy)-4-fluoro-phenyl]-2-methyl-3-pyridyl]methyl]-7-oxa-5-azaspiro[2.4]heptan-6-one], the IC50 was 52 nM.

Turning to `Cc1ncc(-c2ccc(F)c(OC(F)F)c2)cc1CN1CC2(CCC2)OC1=O` [Example 85, 6-[[5-[3-(Difluoromethoxy)-4-fluoro-phenyl]-2-methyl-3-pyridyl]methyl]-8-oxa-6-azaspiro[3.4]octan-7-one], the half-maximal inhibitory concentration (IC50) came to 107 nM.

Consider `Cc1ncc(-c2ccc(F)c(OC(F)F)c2)cc1CN1CC(C)(C)OC1=O` [Example 87, 3-[[5-[3-(Difluoromethoxy)-4-fluoro-phenyl]-2-methyl-3-pyridyl]methyl]-5,5-dimethyl-oxazolidin-2-one], for which the concentration for half-maximal inhibition (IC50) worked out at 373 nM.

On to `Cc1ncc(-c2ccc(F)c(OC(F)F)c2)cc1CN1CCCOC1=O` [Example 88, 3-[[5-[3-(Difluoromethoxy)-4-fluoro-phenyl]-2-methyl-3-pyridyl]methyl]-1,3-oxazinan-2-one], for which the IC50 was found to be 22 nM.

Consider `Cc1ncc(-c2ccc(Cl)c(OC(F)F)c2)cc1CN1CCOC1=O` [Example 89, 3-[[5-[4-Chloro-3-(difluoromethoxy)phenyl]-2-methyl-3-pyridyl]methyl]oxazolidin-2-one], for which the 50% inhibitory concentration (IC50) was found to be 14 nM.

For `Cc1ncc(-c2ccc(F)c(C(F)F)c2)cc1CN1CC2(CCC2)OC1=O` [Example 91, 6-[[5-[3-(Difluoromethyl)-4-fluoro-phenyl]-2-methyl-3-pyridyl]methyl]-8-oxa-6-azaspiro[3.4]octan-7-one], the IC50 is 84 nM.

`Cc1ncc(-c2ccc(F)c(C(F)F)c2)cc1CN1C[C@@H](C)OC1=O` [Example 92, (5R)-3-[[5-[3-(Difluoromethyl)-4-fluoro-phenyl]-2-methyl-3-pyridyl]methyl]-5-methyl-oxazolidin-2-one]: the IC50 came out at 63 nM.

Take `Cc1ncc(-c2ccc(F)c(C(F)F)c2)cc1CN1CC(C)(C)OC1=O` [Example 93, 3-[[5-[3-(Difluoromethyl)-4-fluoro-phenyl]-2-methyl-3-pyridyl]methyl]-5,5-dimethyl-oxazolidin-2-one]: the IC50 worked out at 526 nM.

`Cc1ncc(-c2ccc(F)c(C(F)F)c2)cc1CN1CC2(CC2)OC1=O` [Example 96, 5-[[5-[3-(Difluoromethyl)-4-fluoro-phenyl]-2-methyl-3-pyridyl]methyl]-7-oxa-5-azaspiro[2.4]heptan-6-one]: the IC50 was 31 nM.

As to `Cc1ncc(-c2ccc(Cl)s2)cc1CN1CCOC1=O` [Example 98, 3-[[5-(5-Chloro-2-thienyl)-2-methyl-3-pyridyl]methyl]oxazolidin-2-one], the IC50 was determined as 187 nM.

`Cc1ncc(-c2ccc(C(F)(F)F)s2)cc1CN1CCOC1=O` [Example 99, 3-[[2-Methyl-5-[5-(trifluoromethyl)-2-thienyl]-3-pyridyl]methyl]oxazolidin-2-one]: the IC50 stood at 16 nM.

As to `Cc1ncc(-c2ccc(C(F)F)s2)cc1CN1CCOC1=O` [Example 100, 3-[[5-[5-(Difluoromethyl)-2-thienyl]-2-methyl-3-pyridyl]methyl]oxazolidin-2-one], the IC50 came to 42 nM.

Turning to `COc1ncc(-c2cccc(C(F)(F)F)c2)cc1CN1CCOC1=O` [Example 101, 3-[[2-Methoxy-5-[3-(trifluoromethyl)phenyl]-3-pyridyl]methyl]oxazolidin-2-one], the 50% inhibitory concentration (IC50) was determined as 53 nM.

As for `COc1ncc(-c2cc(F)c(F)c(F)c2)cc1CN1CCOC1=O` [Example 102, 3-[[2-Methoxy-5-(3,4,5-trifluorophenyl)-3-pyridyl]methyl]oxazolidin-2-one], the IC50 was 172 nM.

For `COc1ncc(-c2ccc(F)c(C)c2F)cc1CN1CCOC1=O` [Example 103, 3-[[5-(2,4-Difluoro-3-methyl-phenyl)-2-methoxy-3-pyridyl]methyl] oxazolidin-2-one], the IC50 was determined as 46 nM.

For `COc1ncc(-c2cc(C)cc(F)c2)cc1CN1CCOC1=O` [Example 104, 3-[[5-(3-Fluoro-5-methyl-phenyl)-2-methoxy-3-pyridyl]methyl]oxazolidin-2-one], the IC50 was determined as 159 nM.

On to `COc1ncc(-c2cccc(C)c2)cc1CN1CCOC1=O` [Example 105, 3-[[2-Methoxy-5-(m-tolyl)-3-pyridyl]methyl]oxazolidin-2-one], for which the half-maximal inhibitory concentration (IC50) is 434 nM.

As for `COc1ncc(-c2ccc(Cl)c(Cl)c2)cc1CN1CCOC1=O` [Example 106, 3-[[5-(3,4-Dichlorophenyl)-2-methoxy-3-pyridyl]methyl]oxazolidin-2-one], the half-maximal inhibitory concentration (IC50) is 33 nM.

As for `COc1ncc(-c2ccc(Cl)c(OC(F)F)c2)cc1CN1CCOC1=O` [Example 107, 3-[[5-[4-Chloro-3-(difluoromethoxy)phenyl]-2-methoxy-3-pyridyl]methyl]oxazolidin-2-one], the IC50 worked out at 11 nM.

In the case of `COc1ncc(-c2ccc(F)c(Cl)c2)cc1CN1CCOC1=O` [Example 108, 3-[[5-(3-Chloro-4-fluoro-phenyl)-2-methoxy-3-pyridyl]methyl]oxazolidin-2-one], the IC50 amounted to 32 nM.

By IC50 is commonly meant the concentration that inhibits the measured activity by half.

These data come from patent US11447503B2, “Pyridine carbamates and their use as GLUN2B receptor modulators” (JANSSEN PHARMACEUTICA NV, priority 2019, dated 2022).
